Experimental findings from patent US8420657B2 (Novartis AG, priority 2008, dated 2013) are described below.

pIC50: −log10 of the molar value.

One test has as its target T1, GST-JAK2(808-1132) (Homo sapiens, UniProt O60674).
T1 construct: GST-JAK2(808-1132); purchased Invitrogen (Carlsbad, USA) #4288
The test can be described thus: JAK2 kinase assay (Caliper mobility shift, LabChip 3000). Format: biochemical. In short, it runs like this: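 Recombinant GST-JAK2(808-1132) kinase domain with FITC-labelled JAK3tide peptide substrate and ATP; 60 min at 30 °C, EDTA stop. Substrate/product ratio read by microfluidic mobility shift; compounds at 8 final concentrations, 10 to 0.003 μM.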

Test [1] deals with JAK2-dependent nuclear translocation of STAT5-GFP in U-2 OS osteosarcoma cells. Nature of the test: STAT5 nuclear translocation assay (Cellomics), rhEpo stimulated U-2 OS STAT5-GFP cells. The format is cell-based. The note with it: Homo sapiens, U2OS; STAT5 translocation pathway. The text has this: The medium-throughput (96-well format) cellular automated fluorescence microscopy Cellomics assay can be routinely used to assess the functional activation of Janus Kinases (JAKs), based on the nuclear translocation of their substrate, Signal Transducer and Activator of Transcription (STAT). Nuclear translocation can be monitored either in HT1080 fibrosarcoma cells stably transfected with STAT1 fused to Green Fluorescence Protein (GFP) or in U-2 OS osteosarcoma cells stably transfected with STAT5 fused to Green Fluorescence Protein (GFP). Stimulation of HT1080 cells with interferon-γ (IFN-γ) results in JAK1/JAK2-dependent nuclear translocation of STAT1-GFP, whereas stimulation of U-2 OS cells with recombinant human erythropoietin (rhEpo) results in JAK2-dependent nuclear translocation of STAT5-GFP, both of which can be quantified using the Cellomics Cyto/NucTrans software package. This assay may be used to provide an assessment of the nuclear-cytoplasmic differential (NCD) of STAT-GFP using Hoechst dye to define the boundaries of the nucleus.
U-2 OS osteosarcoma cells may be obtained from ATCC and can be cultured in standard RPMI medium supplemented with 10% FCS and 2 mM L-glutamine. Cells can be stably transfected with STAT5a-GFP using Lipofectamine following the manufacturers' protocol. 24 hours after transfection the medium can be replaced and selected in 400 μg/ml Geneticin. Subsequently, cells can be stably transfected with EpoR using Lipofectamine following the manufacturers' protocol. 24 hours after transfection the medium can be replaced and cells selected in 100 μg/ml Hygromycin B.
Compounds can be dissolved in DMSO to a final stock concentration of 10 mM and stored as aliquots at 4° C. Compounds may be pre-diluted in 100% DMSO at 10 mM, 3 mM 1 mM, 0.3 mM, 0.1 mM, 0.03 mM, 0.01 mM and 0.003 mM. Subsequently, compounds may be diluted in medium and added in 50 μl to the cells. The final compound concentrations tested may be 10 μM, 3 μM 1 μM, 0.3 μM, 0.1 μM, 0.03 μM, 0.01 μM and 0.003 μM and the final DMSO concentration can be 0.1%.
U-2 OS may be seeded at a cell density of 12,000 cells per well in clear-bottom black 96-well Packard View-Plates™. The following day, medium can be removed and replaced with medium containing either the vehicle (DMSO) or increasing concentrations of test compounds for 30 minutes at 37° C. Cells can then be stimulated for 1 hour by adding 10 μl per well of 50 U/ml rhEpo to obtain 5 U/ml of rhEpo as the final concentration. Following treatments, cells can fixed and processed as described above.
The plates can be read on a Cellomics® ArrayscanII automated fluorescence microscope plate reader equipped with a Mercury-Xenon white light illumination source and a Zeiss Axiovert inverted microscope, using the XF100 dichroic/emission filter cube and matching excitation filters, 10× magnification, and a 0.3 numerical aperture objective. Image acquisition and analysis can be performed using a customized protocol based on the ‘NuclearTranslocation’ Bioapplication. For each well, multiple images (fields) can be acquired until a minimum of 1000 cells are counted using two 2 channels: Channel 1 (Hoechst)=focus+nuclear mask, Channel 2 (GFP)=signal quantification in mask areas as outlined below. Nuclei may be first identified based on the Hoechst staining and a mask generated for each nucleus that then serves as a template to generate a circle (eroded inwards by 1 pixel) and a 3 pixel-wide collar-like ring (off-set outwards by 1 pixel), in which the nuclear and cytoplasmic intensity of GFP, respectively, are quantified in the corresponding channel. High content analysis yields numerous measurements per cell and the GFP intensity differential between the nuclear and the cytoplasmic masks may be chosen as a measure of sub-cellular STAT-GFP relocation. The resulting values may be averaged for all cells in the well to return a single measurement plus standard deviation. […]

T1 sequence (O60674 808-1132): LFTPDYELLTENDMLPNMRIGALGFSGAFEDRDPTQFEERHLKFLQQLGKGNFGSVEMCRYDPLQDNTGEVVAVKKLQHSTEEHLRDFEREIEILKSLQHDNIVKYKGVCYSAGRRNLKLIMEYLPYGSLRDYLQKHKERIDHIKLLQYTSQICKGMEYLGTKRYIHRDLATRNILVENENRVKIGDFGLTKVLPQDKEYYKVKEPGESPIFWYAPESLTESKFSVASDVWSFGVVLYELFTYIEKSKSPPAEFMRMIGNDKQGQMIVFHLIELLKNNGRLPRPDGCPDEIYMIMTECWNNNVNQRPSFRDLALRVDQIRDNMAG

For `CN(C)C1CCN(Cc2cc(Nc3ncc4ccn(-c5cc(F)c(CN6CCOCC6)c(F)c5)c4n3)ccn2)C1` (racemic) [Example 427, [7-(3,5-Difluoro-4-morpholin-4-ylmethyl-phenyl)-7H-pyrrolo[2,3-d]pyrimidin-2-yl]-[2-(3-dimethylamino-pyrrolidin-1-ylmethyl)-pyridin-4-yl]-amine], the pIC50 (commonly the IC50 on a negative log10 scale, so that one unit is a factor of ten) was ≥ 8.52 on GST-JAK2(808-1132) and 7.48 in test [1].

Regarding `Fc1cc(-n2ccc3cnc(Nc4ccc(CN5CCOCC5)nc4)nc32)cc(F)c1CN1CCOCC1` [Example 480, [7-(3,5-Difluoro-4-morpholin-4-ylmethyl-phenyl)-7H-pyrrolo[2,3-d]pyrimidin-2-yl]-(6-morpholin-4-ylmethyl-pyridin-3-yl)-amine], the pIC50 is ≥ 8.52 at GST-JAK2(808-1132) and 7.15 in test [1].

Regarding `Fc1cc(-n2ccc3cnc(Nc4ccc([C@H]5COCCN5CCOCc5ccccc5)cc4)nc32)cc(F)c1CN1CCOCC1` [Example 520, {4-[(S)-4-(2-Benzyloxy-ethyl)-morpholin-3-yl]-phenyl}-[7-(3,5-difluoro-4-morpholin-4-ylmethyl-phenyl)-7H-pyrrolo[2,3-d]pyrimidin-2-yl]-amine], the pIC50 on GST-JAK2(808-1132) is 7.24; in test [1], 6.27.

Regarding `CN1CCN(Cc2cc(Nc3ncc4ccn(-c5ccc(C(=O)N6CCS(=O)(=O)CC6)c(F)c5)c4n3)ccn2)CC1` [Example 406, (1,1-Dioxido-thiomorpholin-4-yl)-(2-fluoro-4-{2-[2-(4-methyl-piperazin-1-ylmethyl)-pyridin-4-ylamino]-pyrrolo[2,3-d]pyrimidin-7-yl}-phenyl)-methanone], the pIC50 is 8.40 at GST-JAK2(808-1132) and < 5.40 in test [1].

Turning to `Cc1ccc(Nc2ncc3ccn(-c4cc(F)c(CN5CCOCC5)c(F)c4)c3n2)cc1CN1CCNC(C)(C)C1` [Example 385, [7-(3,5-Difluoro-4-morpholin-4-ylmethyl-phenyl)-7H-pyrrolo[2,3-d]pyrimidin-2-yl]-[3-(3,3-dimethyl-piperazin-1-ylmethyl)-4-methyl-phenyl]-amine], the pIC50 was ≥ 8.52 at GST-JAK2(808-1132) and 7.18 in test [1].

On to `Fc1cc(-n2ccc3cnc(Nc4ccc(Cl)c(CN5CCNCC5)c4)nc32)cc(F)c1CN1CCOCC1` [Example 401, (4-Chloro-3-piperazin-1-ylmethyl-phenyl)-[7-(3,5-difluoro-4-morpholin-4-ylmethyl-phenyl)-7H-pyrrolo[2,3-d]pyrimidin-2-yl]-amine], for which the results for the pIC50 (on GST-JAK2(808-1132); in test [1]) were 8.15 and 6.86, respectively.

`Fc1cc(-n2ccc3cnc(Nc4ccc(OC5CCNC5)nc4)nc32)cc(F)c1CN1CCOCC1` (racemic) [Example 519, [7-(3,5-Difluoro-4-morpholin-4-ylmethyl-phenyl)-7H-pyrrolo[2,3-d]pyrimidin-2-yl]-[6-(pyrrolidin-3-yloxy)-pyridin-3-yl]-amine]: the results for the pIC50 (at GST-JAK2(808-1132); in test [1]) were 8.44 and 7.22, respectively.

With `Cc1cc(Nc2ncc3ccn(-c4cc(F)c(CN5CCS(=O)(=O)CC5)c(F)c4)c3n2)cc(C)c1OCCN1CCOCC1` [Example 432, [3,5-Dimethyl-4-(2-morpholin-4-yl-ethoxy)-phenyl]-{7-[4-(1,1-dioxido-thiomorpholin-4-ylmethyl)-3,5-difluoro-phenyl]-7H-pyrrolo[2,3-d]pyrimidin-2-yl}-amine], the pIC50 on GST-JAK2(808-1132) is ≥ 8.52; in test [1] it was 9.40.

On to `C[C@@H]1CN(C(=O)c2cccc(Nc3ncc4ccn(-c5cc(F)c(CN6CCOCC6)c(F)c5)c4n3)c2)C[C@H](C)N1` [Example 455, {3-[7-(3,5-Difluoro-4-morpholin-4-ylmethyl-phenyl)-7H-pyrrolo[2,3-d]pyrimidin-2-ylamino]-phenyl}-(cis-3,5-dimethyl-piperazin-1-yl)-methanone], for which the figures for the pIC50 (at GST-JAK2(808-1132); in test [1]) were 8.37 and 7.42, respectively.

In the case of `O=C(c1ccc(-n2ccc3cnc(Nc4ccc(CC5CCNCC5)cc4)nc32)cc1F)N1CCOCC1` [Example 381, {2-Fluoro-4-[2-(4-piperidin-4-ylmethyl-phenylamino)-pyrrolo[2,3-d]pyrimidin-7-yl]-phenyl}-morpholin-4-yl-methanone], the pIC50 at GST-JAK2(808-1132) is ≥ 8.52; in test [1], 7.37.

Take `Cc1ccc(Nc2ncc3ccn(-c4cc(F)c(CN5CCOCC5)c(F)c4)c3n2)cc1CN1CCN(C)CC1=O` [Example 415, 1-{5-[7-(3,5-Difluoro-4-morpholin-4-ylmethyl-phenyl)-7H-pyrrolo[2,3-d]pyrimidin-2-ylamino]-2-methyl-benzyl}-4-methyl-piperazin-2-one]: the pIC50 at GST-JAK2(808-1132) was ≥ 8.52; in test [1], 8.16.

For the compound `CN1CCN(C(=O)c2cc(Nc3ncc4ccn(-c5cc(F)c(CN6CCOCC6)c(F)c5)c4n3)ccn2)CC1` [Example 361, {4-[7-(3,5-Difluoro-4-morpholin-4-ylmethyl-phenyl)-7H-pyrrolo[2,3-d]pyrimidin-2-ylamino]-pyridin-2-yl}-(4-methyl-piperazin-1-yl)-methanone], the pIC50 at GST-JAK2(808-1132) was 7.64; in test [1] it was 6.59.

As to `Cc1cc(Nc2ncc3ccn(-c4cc(F)c(CN5CCOCC5)c(F)c4)c3n2)cnc1N1CCNC(C)(C)C1=O` [Example 493, 1-{5-[7-(3,5-Difluoro-4-morpholin-4-ylmethyl-phenyl)-7H-pyrrolo[2,3-d]pyrimidin-2-ylamino]-3-methyl-pyridin-2-yl}-3,3-dimethyl-piperazin-2-one], the pIC50 was ≥ 8.52 on GST-JAK2(808-1132) and 6.98 in test [1].

Turning to `Fc1cc(-n2ccc3cnc(Nc4ccc(CN5CCNCC5)nc4)nc32)cc(F)c1CN1CCOCC1` [Example 486, [7-(3,5-Difluoro-4-morpholin-4-yl methyl-phenyl)-7H-pyrrolo[2,3-d]pyrimidin-2-yl]-(6-piperazin-1-ylmethyl-pyridin-3-yl)-amine], the pIC50 at GST-JAK2(808-1132) was ≥ 8.52; in test [1] it was 6.31.

As for `Cc1ccc(Nc2ncc3ccn(-c4cc(F)c(CN5CCOCC5)c(F)c4)c3n2)cc1CN1CCNCC1=O` [Example 399, 1-{5-[7-(3,5-Difluoro-4-morpholin-4-ylmethyl-phenyl)-7H-pyrrolo[2,3-d]pyrimidin-2-ylamino]-2-methyl-benzyl}-piperazin-2-one], the negative logarithm of the IC50 (pIC50) was ≥ 8.52 on GST-JAK2(808-1132) and 8.18 in test [1].

In the case of `C[C@@H]1CN(c2ccc(Nc3ncc4ccn(-c5cc(F)cc(F)c5)c4n3)cn2)C[C@H](C)N1` [Example 453, [7-(3,5-Difluoro-phenyl)-7H-pyrrolo[2,3-d]pyrimidin-2-yl]-[6-(cis-3,5-dimethyl-piperazin-1-yl)-pyridin-3-yl]-amine], the pIC50 on GST-JAK2(808-1132) was 8.39; in test [1] it was 7.44.

Regarding `Cc1ccc(Nc2ncc3ccn(-c4ccc(C(=O)N5CCOCC5)c(F)c4)c3n2)cc1CN1CCN(C2CC2)CC1` [Example 366, (4-{2-[3-(4-Cyclopropyl-piperazin-1-ylmethyl)-4-methyl-phenylamino]-pyrrolo[2,3-d]pyrimidin-7-yl}-2-fluoro-phenyl)-morpholin-4-yl-methanone], the pIC50 was 8.07 at GST-JAK2(808-1132) and 7.19 in test [1].

For `Fc1cc(-n2ccc3cnc(Nc4ccnc(N5CCNC(C(F)(F)F)C5)c4)nc32)cc(F)c1CN1CCOCC1` (racemic) [Example 364, [7-(3,5-Difluoro-4-morpholin-4-ylmethyl-phenyl)-7H-pyrrolo[2,3-d]pyrimidin-2-yl]-[2-(3-trifluoromethyl-piperazin-1-yl)-pyridin-4-yl]-amine], the pIC50 at GST-JAK2(808-1132) was ≥ 8.52; in test [1], 8.55.
